Results: ChEMBL document CHEMBL3785027 (Eur J Med Chem, 2016)

How the values were obtained:
Assay type in all cases: functional, cell-based
A549 = assay: Cytotoxicity against human A549 cells after 72 hrs by sulforhodamine B colorimetric assay; conditions: A549, 72 h
KB = assay: Cytotoxicity against human KB cells after 72 hrs by sulforhodamine B colorimetric assay
[1] = Cytotoxicity against human KBVIN cells after 72 hrs by sulforhodamine B colorimetric assay

## CC[C@@]1(OC(=O)CN/C(Cc2ccc(OC)cc2)=N/S(C)(=O)=O)C(=O)OCc2c1cc1n(c2=O)Cc2cc3ccccc3nc2-1
A549
  IC50: 54 nM
KB
  IC50: 105 nM
[1]
  IC50: 63.5 nM

## CC[C@@]1(OC(=O)CN/C(Cc2ccc(OC)cc2)=N/S(=O)(=O)c2ccc(C)cc2)C(=O)OCc2c1cc1n(c2=O)Cc2cc3ccccc3nc2-1
[1]
  IC50: 26.3 nM

## CCc1c2c(nc3ccccc13)-c1cc3c(c(=O)n1C2)COC(=O)[C@@]3(CC)OC(=O)C(C)N/C(Cc1ccc(Cl)cc1)=N/S(=O)(=O)c1ccc(C)cc1 (stereo partly specified)
A549
  IC50: 12.9 nM
KB
  IC50: 13.3 nM
[1]
  IC50: 16 nM

## CCc1c2c(nc3ccccc13)-c1cc3c(c(=O)n1C2)COC(=O)[C@@]3(CC)OC(=O)C(C)N/C(Cc1ccccc1)=N/S(=O)(=O)c1ccc(C)cc1 (stereo partly specified)
A549
  IC50: 10.2 nM
KB
  IC50: 83.6 nM
[1]
  IC50: 19.5 nM

## CC[C@@]1(OC(=O)CN/C(Cc2ccc(Cl)cc2)=N/S(=O)(=O)c2ccc(C)cc2)C(=O)OCc2c1cc1n(c2=O)Cc2cc3ccccc3nc2-1
A549
  IC50: 54.9 nM
KB
  IC50: 100 nM
[1]
  IC50: 64.8 nM

## CC[C@@]1(OC(=O)CN/C(Cc2ccc(OC)cc2)=N/S(=O)(=O)c2ccc(F)cc2)C(=O)OCc2c1cc1n(c2=O)Cc2cc3ccccc3nc2-1
A549
  IC50: 14.1 nM
KB
  IC50: 16.9 nM
[1]
  IC50: 22.5 nM

## CCc1c2c(nc3ccccc13)-c1cc3c(c(=O)n1C2)COC(=O)[C@@]3(CC)OC(=O)C(C)N/C(Cc1ccc(OC)cc1)=N/S(=O)(=O)c1ccc(C)cc1 (stereo partly specified)
A549
  IC50: 16 nM
KB
  IC50: 84.2 nM
[1]
  IC50: 22.7 nM

## CC[C@@]1(OC(=O)CN/C(Cc2ccc(OC)cc2)=N/S(=O)(=O)c2cccnc2)C(=O)OCc2c1cc1n(c2=O)Cc2cc3ccccc3nc2-1
A549
  IC50: 76.5 nM
KB
  IC50: 93.8 nM
[1]
  IC50: 123 nM

## CCc1c2c(nc3ccc(OC(=O)N4CCC(N5CCCCC5)CC4)cc13)-c1cc3c(c(=O)n1C2)COC(=O)[C@]3(O)CC [IRINOTECAN]
A549
  IC50: 9480 nM
KB
  IC50: 9830 nM
[1]
  IC50: > 20000 nM

## CC[C@@]1(OC(=O)CN/C(Cc2ccc(OC)cc2)=N/S(=O)(=O)c2ccc(C)cc2)C(=O)OCc2c1cc1n(c2=O)C(OC)c2cc3ccccc3nc2-1 (stereo partly specified)
A549
  IC50: 7310 nM
KB
  IC50: 7560 nM
[1]
  IC50: 6880 nM

## CC[C@@]1(OC(=O)CN/C(Cc2ccc(OC)cc2)=N/S(=O)(=O)c2ccc3ccccc3c2)C(=O)OCc2c1cc1n(c2=O)Cc2cc3ccccc3nc2-1
A549
  IC50: 16.2 nM
KB
  IC50: 68.7 nM
[1]
  IC50: 25.6 nM

## CC[C@@]1(OC(=O)CCCN/C(Cc2ccc(OC)cc2)=N\S(=O)(=O)c2ccc(C)cc2)C(=O)OCc2c1cc1n(c2=O)Cc2cc3ccccc3nc2-1
A549
  IC50: 448 nM
KB
  IC50: 830 nM
[1]
  IC50: 955 nM

## CCc1c2c(nc3ccccc13)-c1cc3c(c(=O)n1C2)COC(=O)[C@@]3(CC)OC(=O)C(C)N/C(Cc1ccc(OC)cc1)=N/S(C)(=O)=O (stereo partly specified)
A549
  IC50: 61 nM
KB
  IC50: 95.2 nM
[1]
  IC50: 98.2 nM

## CC[C@@]1(OC(=O)CN/C(Cc2ccc(OC)cc2)=N/S(=O)(=O)CC)C(=O)OCc2c1cc1n(c2=O)Cc2cc3ccccc3nc2-1
A549
  IC50: 48.1 nM
KB
  IC50: 64.2 nM
[1]
  IC50: 78.6 nM

## CC[C@@]1(OC(=O)CN/C(Cc2ccc(OC)cc2)=N/S(=O)(=O)c2cccs2)C(=O)OCc2c1cc1n(c2=O)Cc2cc3ccccc3nc2-1
A549
  IC50: 37.5 nM
KB
  IC50: 55 nM
[1]
  IC50: 32.5 nM

## CC[C@@]1(OC(=O)CN/C(Cc2ccccc2)=N/S(=O)(=O)c2ccc(C)cc2)C(=O)OCc2c1cc1n(c2=O)Cc2cc3c([N+](=O)[O-])cccc3nc2-1
A549
  IC50: 8270 nM
KB
  IC50: 9050 nM
[1]
  IC50: 9130 nM

## CC[C@@]1(OC(=O)CN/C(Cc2ccc(OC)cc2)=N/S(=O)(=O)c2ccc(C)cc2)C(=O)OCc2c1cc1n(c2=O)Cc2cc3c([N+](=O)[O-])cccc3nc2-1
A549
  IC50: 6270 nM
KB
  IC50: 7040 nM
[1]
  IC50: 4580 nM

## CC[C@@]1(OC(=O)CN/C(Cc2ccc(OC)cc2)=N/S(=O)(=O)c2ccc([N+](=O)[O-])cc2)C(=O)OCc2c1cc1n(c2=O)Cc2cc3ccccc3nc2-1
A549
  IC50: 14.9 nM
KB
  IC50: 14.9 nM
[1]
  IC50: 14.9 nM

## CC[C@@]1(OC(=O)CN/C(C[Si](C)(C)C)=N/S(=O)(=O)c2ccc(C)cc2)C(=O)OCc2c1cc1n(c2=O)Cc2cc3ccccc3nc2-1
A549
  IC50: 30.2 nM
KB
  IC50: 57.8 nM
[1]
  IC50: 39.9 nM

## CC[C@@]1(OC(=O)CN/C(Cc2ccc(OC)cc2)=N/S(=O)(=O)c2ccc(C)cc2)CC(=O)OCc2c1cc1n(c2=O)Cc2cc3ccccc3nc2-1
A549
  IC50: 83.6 nM
KB
  IC50: 232 nM
[1]
  IC50: 263 nM

## CCCCS(=O)(=O)/N=C(\Cc1ccc(OC)cc1)NCC(=O)O[C@]1(CC)C(=O)OCc2c1cc1n(c2=O)Cc2cc3ccccc3nc2-1
A549
  IC50: 34.9 nM
KB
  IC50: 54.2 nM
[1]
  IC50: 43.5 nM

## CC[C@@]1(OC(=O)CN/C(Cc2ccc(OC)cc2)=N/S(=O)(=O)c2ccc(Cl)cc2)C(=O)OCc2c1cc1n(c2=O)Cc2cc3ccccc3nc2-1
A549
  IC50: 16.5 nM
KB
  IC50: 73 nM
[1]
  IC50: 24.8 nM

## CC[C@@]1(OC(=O)CN/C(Cc2ccc(OC)cc2)=N/S(=O)(=O)c2ccc(C)cc2)C(=O)OCc2c1cc1n(c2=O)Cc2cc3cc(O)ccc3nc2-1
A549
  IC50: 64 nM
KB
  IC50: 63.1 nM
[1]
  IC50: 101 nM

## CCc1c2c(nc3ccccc13)-c1cc3c(c(=O)n1C2)COC(=O)[C@@]3(CC)OC(=O)CN/C(Cc1ccc(OC)cc1)=N/S(C)(=O)=O
A549
  IC50: 19.8 nM
KB
  IC50: 16.7 nM
[1]
  IC50: 25.8 nM

## CC[C@@]1(OC(=O)CN/C(Cc2ccc(OC)cc2)=N/S(=O)(=O)c2ccc(C)cc2)C(=O)OCc2c1cc1n(c2=S)Cc2cc3ccccc3nc2-1
A549
  IC50: 140 nM
KB
  IC50: 233 nM
[1]
  IC50: 159 nM

## CCc1c2c(nc3ccc(O)cc13)-c1cc3c(c(=O)n1C2)COC(=O)[C@@]3(CC)OC(=O)CN/C(Cc1ccc(OC)cc1)=N/S(=O)(=O)c1ccc(C)cc1
A549
  IC50: 21.8 nM
KB
  IC50: 4.5 nM
[1]
  IC50: 28.2 nM

## CC[C@@]1(OC(=O)CN/C(Cc2ccc(OC)cc2)=N/S(=O)(=O)c2ccc(C)cc2)C(=O)OCc2c1cc1n(c2=O)Cc2cc3cccc([N+](=O)[O-])c3nc2-1
A549
  IC50: 13900 nM
KB
  IC50: 11300 nM
[1]
  IC50: 10700 nM

## CCc1c(OP(=O)(O)OC)ccc2nc3c(cc12)Cn1c-3cc2c(c1=O)COC(=O)[C@@]2(CC)OC(=O)CN/C(Cc1ccc(OC)cc1)=N/S(=O)(=O)c1ccc(C)cc1
A549
  IC50: 344 nM
KB
  IC50: 141 nM
[1]
  IC50: 305 nM

## CCc1c2c(nc3ccccc13)-c1cc3c(c(=O)n1C2)COC(=O)[C@@]3(CC)OC(=O)CN/C(Cc1ccccc1)=N/S(=O)(=O)c1ccc(C)cc1
A549
  IC50: 7.2 nM
KB
  IC50: 89.5 nM
[1]
  IC50: 18.5 nM

## CC[C@@]1(OC(=O)CN/C(Cc2ccc(C)cc2)=N/S(=O)(=O)c2ccc(C)cc2)C(=O)OCc2c1cc1n(c2=O)Cc2cc3ccccc3nc2-1
A549
  IC50: 17.4 nM
KB
  IC50: 73.9 nM
[1]
  IC50: 27.5 nM

## CCc1c2c(nc3ccccc13)-c1cc3c(c(=O)n1C2)COC(=O)[C@@]3(CC)OC(=O)CN/C(Cc1ccc(OC)cc1)=N/S(=O)(=O)c1ccc(C)cc1
A549
  IC50: 6.8 nM
KB
  IC50: 9.4 nM
[1]
  IC50: 10.1 nM

## CC[C@@]1(OC(=O)CCN/C(Cc2ccc(OC)cc2)=N\S(=O)(=O)c2ccc(C)cc2)C(=O)OCc2c1cc1n(c2=O)Cc2cc3ccccc3nc2-1
A549
  IC50: 88.9 nM
KB
  IC50: 622 nM
[1]
  IC50: 527 nM

## CC[C@@]1(OC(=O)C(C)N/C(Cc2ccc(OC)cc2)=N/S(=O)(=O)c2ccc(C)cc2)C(=O)OCc2c1cc1n(c2=S)Cc2cc3ccccc3nc2-1 (stereo partly specified)
A549
  IC50: 86.9 nM
KB
  IC50: 109 nM
[1]
  IC50: 151 nM

## CC[C@@]1(OC(=O)CN/C(Cc2ccc(OC)cc2)=N/S(=O)(=O)N(C)C)C(=O)OCc2c1cc1n(c2=O)Cc2cc3ccccc3nc2-1
A549
  IC50: 40.8 nM
KB
  IC50: 66.5 nM
[1]
  IC50: 45.3 nM

## CC[C@@]1(OC(=O)CN/C(Cc2ccc(OC)cc2)=N/S(=O)(=O)c2ccc(OC)cc2)C(=O)OCc2c1cc1n(c2=O)Cc2cc3ccccc3nc2-1
A549
  IC50: 31.9 nM
KB
  IC50: 51.6 nM
[1]
  IC50: 22.2 nM

## CC[C@@](O)(C(=O)NCCN/C(Cc1ccc(OC)cc1)=N/S(=O)(=O)c1ccc(C)cc1)c1cc2n(c(=O)c1COC(C)=O)Cc1cc3ccccc3nc1-2
A549
  IC50: 688 nM
KB
  IC50: 937 nM
[1]
  IC50: 947 nM
